Results published in US20140205566A1, “CYCLIC NUCLEUOSIDE DERIVATIVES AND USES THEREOF” (NOVARTIS AG, priority 2012, published 2014).

Tests used:
Type in all cases: cell-based
dengue virus [1] = experiment: Dengue EC50 determination: PBMC infected with virus/humanized 4G2 antibody complex, plaque reduction assay using BHK cells; details: M.O.I of 1, 48 hours, plaque reduction in BHK cells
Method: Cryopreserved PBMC (Peripheral Blood Mononuclear Cell) cells were purchased from AllCells, LLC in USA. The cells were then thawed according to manufacturer's instructions and re-suspended in RPMI medium supplemented with 1% penicillin/streptomycin solution and 10% Fetal Calf serum. The cells were then counted and viability checked (viability should be at least 80%). After centrifuging and removing the media, the cells were diluted to 1×10^7 cells/mL in RPMI medium supplemented with 1% penicillin/streptomycin. 50 μl of the cells were then dispensed into 96-well tissue culture plate resulting in 5×10^5 cells/well. Next, virus with humanized 4G2 mixture was prepared for infection. Briefly, virus (2×10^7 pfu/ml) was mixed with humanized 4G2 antibody with the final antibody concentration of 0.38 μg/ml and incubated for 30 minutes at 4° C. to assist virus/antibody complex formation. The virus-antibody complex was then added to the PBMC at multiplicity of infection (M.O.I) of 1. The mixture of cells, virus and antibody was then further incubated in the plates at 37° C. for an hour in the humidified incubator for virus attachment and infection to take place. Serial diluted compounds were then added to the final media volume of 200 μl with 2% Fetal Calf Serum (final PBMC concentration would be 2.5×10^6 cells/mL). The plates were then incubated at 37° C., 5% CO2 for another 48 hours. The extent of the infection and compound inhibition was measured by plaque reduction assay using BHK cells [RD-2004-80036]. Briefly, supernatants of BHK cells grown in 24-well tissue culture (seeded at 200,000 cells/well the night before) were removed and subjected to 200 μl of diluted supernatants derived from PBMC infection containing serial diluted compounds. After incubating it for 37° C. for 1 hour in the incubator, the supernatants were removed and BHK cells overlaid with RPMI media containing 0.8% methyl-cellulose, 0.5% DMSO, 0.05% sodium bicarbonate, 25 mM HEPES, 2% fetal bovine serum and 1% penicillin/streptomycin solution. After additional 4 days of incubation at 37° C. incubator, the monolayer of BHK cells were fixed with 4% paraformaldehyde, stained with crystal violet and plaques counted. The dose response (n=2) is calculated by Prism from Graphpad software using a mathematical curve fitting analysis called nonlinear regression with four independent parameters. Briefly, the software generates the best fit curve using the formula F(x)=((A−D)/(1+((x/C)̂B)))+D. In this formula, x represents the concentration of the compound, A is the minimum value, B represents the steepness of the curve (sometimes known as Hill slope), C is the inflection point and D is the maximum value. EC50 was estimated as the concentration of the compound which will inhibit 50% of the plaque formation. A positive control (7-deaza-2′-C-acetylene-adenosine) was used to ensure the quality of the data.

[2] = CCK8 cytotoxicity assay in HepG2 cells; details: human, CCK-8
Method: HepG2 cells were trypsinized, washed, counted and diluted to 1.6×10^4 cells/ml in DMEM-W/O Glucose, supplemented with 10% Fetal bovine serum (FBS), 1% Penicillin/Streptomycin, 2 mM HEPES, 1 mM Sodium Pyruvate, 10 mM Galactose & 2 mM Glutamine. 25 μl of the media containing 400 cells per well were dispensed in clear 384-well tissue culture plate and incubated at room temperature for 30 minutes. The plate was then transferred and placed at 37° C., 5% CO2 humidified incubator overnight. On the next day, serial-diluted compound plates were prepared and 125 nl of compounds at various concentrations were then dispensed into the tissue culture well (200× dilution). The plates were then transferred to 37° C., 5% CO2 humidified incubator for additional 96 hours. Cytotoxicity was measured by CCK-8 assay. Briefly, CCK-8 was thawed on bench top and diluted 2.5× with the growth media. 35 ul of the pre-diluted CCK-8 was then introduced into each well and the plates were then further incubated in 37° C., 5% CO2 humidified incubator for 3 hours. The absorbance was read by Envision at 450 nm. Dose response curves were calculated as in the previous section. The CC50 is estimated as the concentration of the compound which will inhibit 50% of the signal. A positive control (puromycin) was used to ensure the quality of the data.

dengue virus [3] = experiment: Intracellular nucleoside triphosphate concentration needed to inhibit 50% of viral production (NTP50) in PBMC
Method: NTP50 is defined as the concentration of the nucleoside triphosphate (NTP) that will inhibit 50% of viral production. The NTP50 experiment was performed using cryopreserved PBMC as described above in the Dengue EC50 determination section. Briefly, PBMC was thawed and incubated in RPMI medium containing 2% Fetal Bovine serum (FBS), 1% Penicillin/Streptomycin supplemented with various concentration of a representative compound of the present invention (e.g., Example 2) up to 100 μM. After the intracellular conversion of Example 2 into corresponding nucleoside triphosphate reached steady state (24 hours at 37° C. in the incubator), the cells were spun down, washed with 0.9% NaCl solution and lyzed in RIPA buffer (50 mM Tris pH 7.5, 150 mM NaCl, 1% NP40) containing with protease and phosphotase inhibitor. The cells were further incubated at room temperature for complete lysis of the cells and the cell debris spun down at 13,000 g in at 4° C. for 20 minutes. The lysate was transferred into […] and the concentration of the nucleoside triphosphate was measured. The concentration of the nucleoside triphosphate was then plotted against the concentration of Example 2 and a curve of the concentration of the nucleoside triphosphate vs incubated Example 2 was generated using Michaelis-Menten Kinetics with the formula Y=A[Example 2]/B+[Example 2] where Y is the concentration of the nucleoside triphosphate and [Example 2] is the concentration of the compound Example 2. A and B were constants determined by best fitting. By EC50 of [Example 2] in the equation, the intracellular concentration of nucleoside triphosphate which corresponds to 50% reduction of the virus (NTP50) can be determined.
Since all compounds of the present invention would be converted to the same nucleoside triphosphate intracellularly (the structure of NTP is shown below), the NTP50 of all compounds of the present invention would be the same regardless which compound was used in the experiment. NTP50 for the compound Example 2 was measured to be 0.0016 μM in PBMC lysate from 1 million cells with 100 μL of lysis buffer. The Mean Corpuscular Volume of PBMC is approximately 0.3×10^−6 μL/per cell=0.3 μL/1 million cells. By using the literature of Simiele, M. et al. Antimicrob. Agents Chemother. 2011 55, 2976-2978, NTP50=0.0016×(100/0.3)=0.53 μM/1 million cells=0.53×0.3/1.0×10^6=0.159×10^−6 μmol/1 million cells. Thus, from the calculation, the intracellular nucleoside triphosphate concentration needed to inhibit 50% of viral production (NTP50) is around ˜200 fmol/1 million cells.

Row | SMILES | EC50 (dengue virus [1]) | CC50 at 96 h [2] | NTP50 (dengue virus [3]; in PBMC lysate from 1 million cells with 100 μL of lysis buffer) | NTP50 (dengue virus [3]; intracellular amount, calculated) | NTP50 (dengue virus [3]; intracellular amount, rounded from the calculation) | NTP50 (dengue virus [3]; intracellular, corrected with PBMC volume 0.3 μL/1 million cells)
1 | CCOC(=O)[C@H](C)N[P@@]1(=O)OC[C@H]2O[C@@H](n3cnc4c(OCC)nc(N)nc43)[C@](C)(F)[C@@H]2O1 [Example 1, (S)-ethyl 2-(((2R,4aR,6R,7R,7aR)-6-(2-amino-6-ethoxy-9H-purin-9-yl)-7-fluoro-7-methyl-2-oxidotetrahydro-4H-furo[3,2-d][1,3,2]dioxaphosphinin-2-yl)amino)propanoate] | 230 nM | > 50000 nM |  |  |  | 
2 | CCOc1nc(N)nc2c1ncn2[C@@H]1O[C@@H]2CO[P@@](=O)(N[C@@H](C)C(=O)OC(C)C)O[C@H]2[C@@]1(C)F [Example 2, (S)-isopropyl 2-(((2S,4aR,6R,7R,7aR)-6-(2-amino-6-ethoxy-9H-purin-9-yl)-7-fluoro-7-methyl-2-oxidotetrahydro-4H-furo[3,2-d][1,3,2]dioxaphosphinin-2-yl)amino)propanoate] | 72 nM | > 50000 nM | 0.0016 µM | 0.159×10^−6 μmol/1 million cells | ~200 fmol/1 million cells | 0.53 μM/1 million cells
3 | CCOc1nc(N)nc2c1ncn2[C@@H]1O[C@@H]2CO[P@](=O)(N[C@@H](C)C(=O)OC)O[C@H]2[C@@]1(C)F [Example 3, (S)-methyl 2-(((2R,4aR,6R,7R,7aR)-6-(2-amino-6-ethoxy-9H-purin-9-yl)-7-fluoro-7-methyl-2-oxidotetrahydro-4H-furo[3,2-d][1,3,2]dioxaphosphinin-2-yl)amino)propanoate] | 460 nM | > 50000 nM |  |  |  | 
4 | CCOc1nc(N)nc2c1ncn2[C@@H]1O[C@@H]2CO[P@@](=O)(N[C@H](C)C(=O)OC(C)C)O[C@H]2[C@@]1(C)F [Example 6, (R)-isopropyl 2-(((2S,4aR,6R,7R,7aR)-6-(2-amino-6-ethoxy-9H-purin-9-yl)-7-fluoro-7-methyl-2-oxidotetrahydro-4H-furo[3,2-d][1,3,2]dioxaphosphinin-2-yl)amino)propanoate] | 370 nM | > 50000 nM |  |  |  | 
